Results from publication PMC3914206.

Key:
panel of 442 kinases [1] = target: T1, panel of 442 kinases (Homo sapiens, UniProt Q56UN5); type: binding; conditions: kinase YSK4; compound concentration 10 µM
T1 construct: purchased KINOMEscan
T1 sequence (Q56UN5 1-1328): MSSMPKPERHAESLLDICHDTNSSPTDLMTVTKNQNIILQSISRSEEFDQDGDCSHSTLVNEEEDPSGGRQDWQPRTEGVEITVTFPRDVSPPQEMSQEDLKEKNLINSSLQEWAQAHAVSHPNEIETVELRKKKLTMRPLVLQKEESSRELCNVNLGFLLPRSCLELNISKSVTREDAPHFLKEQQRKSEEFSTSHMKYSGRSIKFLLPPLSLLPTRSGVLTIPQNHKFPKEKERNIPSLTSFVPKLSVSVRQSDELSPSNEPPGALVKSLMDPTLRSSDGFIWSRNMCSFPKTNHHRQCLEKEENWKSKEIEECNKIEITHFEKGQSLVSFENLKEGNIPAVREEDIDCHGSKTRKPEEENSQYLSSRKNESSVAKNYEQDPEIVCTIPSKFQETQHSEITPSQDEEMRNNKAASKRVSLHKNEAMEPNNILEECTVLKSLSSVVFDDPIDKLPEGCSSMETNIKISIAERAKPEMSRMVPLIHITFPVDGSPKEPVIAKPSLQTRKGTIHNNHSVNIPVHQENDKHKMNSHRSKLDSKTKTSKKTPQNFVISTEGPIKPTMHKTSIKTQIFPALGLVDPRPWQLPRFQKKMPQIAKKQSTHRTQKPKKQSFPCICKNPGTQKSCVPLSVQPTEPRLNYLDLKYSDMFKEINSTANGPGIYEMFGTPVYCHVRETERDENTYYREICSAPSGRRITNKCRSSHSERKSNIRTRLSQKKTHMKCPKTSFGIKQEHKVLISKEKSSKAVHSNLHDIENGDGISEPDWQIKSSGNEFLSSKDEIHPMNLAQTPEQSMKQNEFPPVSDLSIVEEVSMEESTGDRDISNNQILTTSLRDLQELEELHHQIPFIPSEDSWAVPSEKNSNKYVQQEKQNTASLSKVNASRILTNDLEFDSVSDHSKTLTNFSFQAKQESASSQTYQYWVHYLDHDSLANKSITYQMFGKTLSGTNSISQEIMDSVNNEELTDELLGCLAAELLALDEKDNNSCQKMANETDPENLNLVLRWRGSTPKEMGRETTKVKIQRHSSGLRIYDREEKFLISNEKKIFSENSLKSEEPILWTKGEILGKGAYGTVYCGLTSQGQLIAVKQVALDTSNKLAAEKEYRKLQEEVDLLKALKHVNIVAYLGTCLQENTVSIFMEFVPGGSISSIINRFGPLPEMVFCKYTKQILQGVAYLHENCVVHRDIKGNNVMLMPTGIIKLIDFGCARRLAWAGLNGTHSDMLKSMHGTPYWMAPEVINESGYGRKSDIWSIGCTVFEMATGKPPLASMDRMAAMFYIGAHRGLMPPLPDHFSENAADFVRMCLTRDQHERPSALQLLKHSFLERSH
Description: (§1) We assessed the selectivity of members of this scaffold using the KINOMEscan methodology across a near comprehensive panel of 442 kinases [[18,27]].

panel of 442 kinases [2] = target: T2, panel of 442 kinases (Plasmodium falciparum, UniProt P62344); type: binding; conditions: Compound Concentration 10 µM
T2 construct: purchased KINOMEscan
Description: as §1

T2 sequence (P62344 whole entry): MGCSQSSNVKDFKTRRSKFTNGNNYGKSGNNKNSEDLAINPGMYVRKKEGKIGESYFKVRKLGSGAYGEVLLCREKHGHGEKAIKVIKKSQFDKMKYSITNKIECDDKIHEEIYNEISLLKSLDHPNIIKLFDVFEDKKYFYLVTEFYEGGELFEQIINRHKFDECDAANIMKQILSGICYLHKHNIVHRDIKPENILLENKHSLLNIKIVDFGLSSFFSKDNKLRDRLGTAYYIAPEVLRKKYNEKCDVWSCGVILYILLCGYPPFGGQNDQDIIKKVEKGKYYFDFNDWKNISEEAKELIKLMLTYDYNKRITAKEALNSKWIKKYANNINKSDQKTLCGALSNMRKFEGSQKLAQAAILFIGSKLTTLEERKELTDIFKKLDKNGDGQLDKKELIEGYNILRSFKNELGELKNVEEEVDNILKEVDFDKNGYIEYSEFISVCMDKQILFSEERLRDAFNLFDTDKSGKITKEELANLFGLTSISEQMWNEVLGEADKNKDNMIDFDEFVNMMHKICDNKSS

| SMILES | % Ctrl, YSK4 (panel of 442 kinases [1]) [% Ctrl] | KINOMEscan: PFCDPK1(P.falciparum) (panel of 442 kinases [2]) |
| --- | --- | --- |
| COc1cc(C(=O)N2CCC(N3CCN(C)CC3)CC2)ccc1Nc1ncc2c(n1)N(C1CCCC1)c1ccccc1C(=O)N2C [Compound 25, 11-cyclopentyl-2-((2-methoxy-4-(4-(4-methylpiperazin-1-yl)piperidine-1-carbonyl)phenyl)amino)-5-methyl-5H-benzo[e]pyrimido[5,4-b][1,4]diazepin-6(11H)-one] | 100 | 91 |
| CCOc1cc(C(=O)N2CCC(N3CCN(C)CC3)CC2)ccc1Nc1ncc2c(n1)N(C1CCCC1)c1ccccc1C(=O)N2C [Compound 26] | 100 | 100 |
| COc1cc(C(=O)N2CCC(N3CCN(C)CC3)CC2)ccc1Nc1ncc2c(n1)N1CCc3cccc(c31)C(=O)N2C [Compound 24] | 24 |  |
| COc1cc(C(=O)N2CCC(N3CCN(C)CC3)CC2)ccc1Nc1ncc2c(n1)N(C)c1ccccc1C(=O)N2C [15 (LRRK2-IN-1)] | 99 | 100 |
